Measured values: patent US4970204A, “3-substituted nitro-steroid derivatives as 5-α-reductase inhibitors” (SmithKline Beecham Corporation, priority 1989, dated 1990)
Where two headings read alike, the source gives them in different places.

Molecular target: T1, human steroid 5-α-reductase (Homo sapiens, UniProt P31213)
T1 construct: Frozen human prostates were thawed and minced into small pieces; from tissue; host or cells: hyperplastic human prostate, washed 140,000×g particulate fraction
T1 sequence (P31213 1-254): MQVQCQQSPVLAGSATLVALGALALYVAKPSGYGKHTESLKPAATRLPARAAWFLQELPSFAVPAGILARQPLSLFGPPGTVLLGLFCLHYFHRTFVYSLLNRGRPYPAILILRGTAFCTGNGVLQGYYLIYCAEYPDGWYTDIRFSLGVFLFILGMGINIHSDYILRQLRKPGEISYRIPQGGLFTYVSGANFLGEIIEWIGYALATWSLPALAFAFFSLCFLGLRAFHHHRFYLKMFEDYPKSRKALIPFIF
Assay: inhibition of human steroid 5-α-reductase using tissue from hyperplastic human prostates
Format: biochemical
Description: The tissue was homogenized in 3 to 5 volumes of 20 mM potassium phosphate, pH 6.5, buffer containing 0.33 M sucrose, 1 mM dithiothreitol, and 50 μM NADPH with a Brinkmann Polytron (Sybron Corporation, Westbury, N.Y.).
The resulting pellet was suspended in 20 mM potassium phosphate buffer, pH 6.5, containing 20% glycerol, 1 mM dithiothreitol, and 50 μM NADPH. The suspended particulate solution was stored at -80° C.
After incubating the solution at 37° C. for 20 to 30 minutes the reaction was quenched by the addition of 4 ml ethyl acetate and 0.25 μmol each of testosterone, dihydrotestosterone, androstanediol, and androstanedione as carriers. The organic layer was removed to a second test tube and evaporated to dryness in vacuo. […] The radiochemical content in the bands of the substrate and the products was determined with a BIOSCAN Imaging Scanner (Bioscan, Inc., Washington, D.C.). The percent of recovered radiolabel converted to product was calculated, from which enzyme activity was determined. All incubations were conducted such that no more than 12% of the substrate (testosterone) was consumed.
Assuming that the steroidal inhibitor is a competitive inhibitor against testosterone, a value for the inhibition constant (Ki) can be calculated from equation 1: […]

Row | Ki (human prostatic particulate enzyme, [14C]-testosterone substrate, pH 5.0, 37° C., 20 to 30 minutes, Dixon plot, assuming competitive inhibition against testosterone, read-out: inhibition constant (Ki)) | SMILES | Ki
1 |  | CC(C)N(C(=O)[C@H]1CC[C@H]2[C@@H]3CC[C@H]4CC([N+](=O)[O-])=CC[C@]4(C)[C@H]3CC[C@]12C)C(C)C [2-ene analogue, 17β-N,N-diisopropylcarboxamide-3-nitro-5-α-androst-2-ene] | 250 nM
2 | 50 nM | CC(C)N(C(=O)[C@H]1CC[C@H]2[C@@H]3CC[C@H]4C=C([N+](=O)[O-])CC[C@]4(C)[C@H]3CC[C@]12C)C(C)C [17β-N,N-Diisopropylcarboxamide-3-nitro-5-α-androst-3-ene] | 
